Test results published in patent publication US20240165280A1, “METHODS FOR TREATMENT OF CANCERS” (Fusion Pharmaceuticals Inc., priority 2021, published 2024).
“Also recorded” adds a separate entry of the source.

Legend:
[1] = system: HT-29 xenograft tumors; experiment: Therapy study of [^177Lu]-3BP-227 and [^225Ac]-3BP-227 in CD-1 Nude mice bearing HT-29 xenograft tumors; type: in vivo; settings: for tumor growth inhibition relative to controls: single i.v. dose 4.5 mCi per mouse (8,325 MBq/kg), HT-29 xenografts, monitored 34 days
Protocol: (§1) For therapeutic efficacy studies, single doses of 3,885-8,325 MBq/kg of [^177Lu]-3BP-227 (2,100-4,500 μCO or 1.85-5.55 MBq/kg of [^225Ac]-3BP-227 (1-3 μCO were administered to animals bearing HT29 xenografts (average tumor volume=212±46 mm^3), and tumor growth was monitored for 77 days. Mice in the control group were administered vehicle alone (10% ethanol in PBS). Study endpoints included tumor volume measurement and/or impact to animal health status.
A therapy efficacy study of [^177Lu]-3BP-227 and [^225Ac]-3BP-227 was conducted in mice comprising the following: • 1. 30 CD-1 Nude mice (5-6 week-old females; Charles River Laboratories) bearing subcutaneous HT-29 (ATCC #HTB-38; colorectal adenocarcinoma) tumor xenografts distributed amongst 5 groups (n=6). There were two groups each treated with [^177Lu]-3BP-227 or [^225Ac]-3BP-227 and 1 control group (below). • 2. Target dose of radioactivity was 2.1 or 4.5 mCi of [^177Lu]-3BP-227 per mouse, or 1 or 3 μCi of [^225Ac]-3BP-227 per mouse, for radiotherapy groups. • 3. Mice in the control group were administered vehicle alone (10% ethanol in PBS). • 4. For all groups, tumor size and mouse weight were monitored for 34-77 days. Relative tumor volume, relative mouse weight, and tumor regression relative to control were also calculated.
Perform an in vivo therapy study to determine the efficacy of [^177Lu]-3BP-227 and [^225Ac]-3BP-227, for the treatment of subcutaneous HT-29 xenograft tumors in nude mice.
Groups of CD-1 Nude female mice (five groups; n=6 each, 30 total) will be administered radiolabelled test articles via intravenous injection once.
[^177Lu]-3BP-227 will be dissolved in PBS containing 10% ethanol and prepared at a concentration of about 13 mCi/mL and about 25 mCi/mL. [^177Lu]-3BP-227 compounds would be administered (in 200 μL) at a dose of 2.1 mCi (about 13 mCi/mL stock) or 4.5 mCi (about 25 mCi/mL stock) to two groups of animals (n=12 total). [^225Ac]-3BP-227 will be dissolved in PBS containing 10% ethanol and prepared at a concentration of 5 μCi/mL and 15 μCi/mL. [^225Ac]-3BP-227 compounds will be administered (in 200 μL) at a dose of 1 μCi (5 μCi/ml stock) or 3 μCi (15 μCi/mL stock) to two groups of animals (n=12 total). […] The length (L) and width (W) of the tumor will be measured three times a week up to day 28, and the tumor volume will be calculated as per Section 13, Data Calculations and Statistical Analysis. […]
1. Tumor volume is calculated according to the formula: TV=(L×W^2)×0.52, where L is the longest diameter (length) of the tumor and W is the shortest diameter (width) of the tumor. Tumor volume at day n is expressed as relative tumor volume (RTV) according to the following formula: RTV=TVn/TV0, where TVn is the tumor volume at day n, and TV0 is the tumor volume at day 0. […]

[2] = Tolerability (mouse weight, health status) in the therapy study; type: in vivo, CD-1 Nude mice
Protocol: as §1
A therapy efficacy study of [^177Lu]-3BP-227 and [^225Ac]-3BP-227 was conducted in mice comprising the following: • 1. […] Target dose of radioactivity was 2.1 or 4.5 mCi of [^177Lu]-3BP-227 per mouse, or 1 or 3 μCi of [^225Ac]-3BP-227 per mouse, for radiotherapy groups. • 3. […] For all groups, tumor size and mouse weight were monitored for 34-77 days. Relative tumor volume, relative mouse weight, and tumor regression relative to control were also calculated.
[^177Lu]-3BP-227 will be dissolved in PBS containing 10% ethanol and prepared at a concentration of about 13 mCi/mL and about 25 mCi/mL. […] The length (L) and width (W) of the tumor will be measured three times a week up to day 28, and the tumor volume will be calculated as per Section 13, Data Calculations and Statistical Analysis. […]

[3] = system: HT-29 xenografts; experiment: Earlier [^177Lu]-3BP-227 therapy study (Study 1), HT-29 xenografts in nude mice; type: in vivo
[4] = system: HT-29 xenografts; experiment: Earlier [^177Lu]-3BP-227 therapy study (Study 2), HT-29 xenografts; type: in vivo, nude mice; settings: 4.5 mCi per mouse, tumor volume about 450 mm^3 at injection
[5] = system: NTSR1-expressing HT-29 xenograft tumors; experiment: Uptake and persistence in NTSR1-expressing HT-29 xenograft tumors; type: in vivo; settings: NTSR1-expressing HT-29 xenograft tumors in Nude mice
Text: (§2) The compounds to be evaluated are [^177Lu]-3BP-227 and [^225Ac]-3BP-227, which are the ^177Lu and ^225Ac radiolabelled versions, respectively, of the compound of Formula I (also referred as 3BP-227). NTSR1 is overexpressed in several types of cancer, e.g., pancreatic ductal adenocarcinoma (PDAC), Ewing's sarcoma and prostate cancer, but it is rarely expressed in normal tissues.

[6] = system: 293 tumor xenografts; experiment: Uptake into 293 tumor xenografts, which do not express NTSR1; type: in vivo; settings: 293 tumor xenografts (no NTSR1 expression)
Text: as §2

[7] = Acute toxicity in mice with [^177Lu]-3BP-227 therapy (earlier studies); type: in vivo; settings: earlier [^177Lu]-3BP-227 therapy studies in mice

SMILES: COc1cccc(OC)c1-c1cc(C(=O)NC2(C(=O)O)C3CC4CC(C3)CC2C4)nn1-c1ccc(C(=O)N(C)CCCN(C)CCCN(C)C(=O)CN2CCN(CC(=O)[O-])CCN(CC(=O)[O-])CCN(CC(=O)[O-])CC2)cc1C(C)C.[177Lu+3] (stereo not shown) [[^177Lu]-3BP-227]
- frequency of significant tumor regrowth ([1]; 4.5 mCi [^177Lu]-3BP-227 versus 1 μCi [^225Ac]-3BP-227 group): significant tumor regrowth was more frequent
- duration of tumor growth inhibition relative to controls ([1]; 4.5 mCi group, whole monitoring period): 34 days
- tumor growth inhibition relative to controls [1]: inhibition in the growth of tumors; also recorded: significant and durable tumor growth inhibition
- tumor growth inhibition relative to controls ([1]; listed as [^177Lu]3BP-227): efficacious at suppressing tumor growth
- weight gain compared with vehicle control ([2]; 2.1 and 4.5 mCi groups, 34 days): indistinguishable weight gain
- treatment-related toxicities ([2]; all dose groups of the studies): no treatment-related toxicities observed
- inhibition of tumor growth ([3]; about 2.1 mCi per mouse): somewhat inhibited tumor growth
- suppression of tumor growth ([3]; about 4.5 mCi per mouse, tumor volume about 200 mm^3 at injection): effective as a therapy for suppressing tumor growth
- duration of tumor growth suppression ([3]; particularly evident at about 4.5 mCi per mouse): at least 60 days
- suppression of HT-29 tumor growth [4]: not efficacious at suppressing HT-29 tumor growth
- tumor uptake and persistence [5]: good uptake and persistence
- tumor uptake [6]: minimal uptake
- acute toxicity [7]: no observed acute toxicity
